Measured values taken from patent publication US5801017A, “Production of recombinant factor Xa inhibitor of leech Hirudo medicinalis” (Bio-Technology General Corp., priority 1994, dated 1998).
Where “and” joins values, the source holds several entries; their conditions need not be identical. Identical values can stand only once. Like-named read-outs stand apart in the source and are kept apart here.

B1: mature FXaI: recombinant FXaI obtained by enterokinase cleavage of the pFSHI-6 prepeptide, about 15 kD (protein)
chain: YEVIYVDDPCEDSDCEDGNKCSPVTNECDCSPVRCRLHCNFYVKDSNGCETCACEPKCKHKNCPTGHHCNKLTNKCELKKQRRMG

What was measured:
thrombin [1] = test: inhibition of thrombin (Chromozyme TH); type: biochemical; details: substrate Chromozyme TH
Experimental: (§1) Inhibition of bovine trypsin by naturally occurring FXaI was calculated following the classical dose response method. Ki values were obtained by plotting the percentage of activity of FXaI (determined by the calorimetric assay described below) against the ratio of the concentrations of inhibitor and enzyme. The calorimetric assay was performed using 80 μM Chromozyme TH (Pentapharm, Switzerland) as substrate in 10 mM Tris-HCl, 10 mM Hepes (pH 7.8), 100 mM NaCl, 0.1% PEG 6000 at 25° C. in the presence of 3.83 or 4.27 nM bovine trypsin. Inhibitor and enzyme were preincubated for 10 min at 25° C. before adding the substrate.
(§2) Plasmin and thrombin were not inhibited by naturally occurring FXaI in a similar assay as that for trypsin. In the case of thrombin, the substrate used was the same as that used for trypsin; in the case of plasmin, S2251 was used as substrate.

thrombin [2] = test: thrombin inhibition assay according to Lottenberg et al.; type: biochemical
Experimental: The refolded and dialyzed protein so obtained was assayed for FXa inhibitory activity by the biochemical chromogenic assay described in Example 2. The results are shown in Table 6 as milliunits per mg protein (mu/mg). The amount of protein causing 50% inhibition in an assay mixture containing 2 nM FXa is defined as 1 mu. In addition, the refolded protein was also tested for its inhibitory effect on thrombin, another proteolytic enzyme of the coagulation cascade, which was assayed according to Lottenberg et al. Methods Enzymol. 80:341-361 (1981).

Plasmin = test: inhibition of plasmin (S2251); type: biochemical; details: substrate S2251
Experimental: as §1, §2

[3] = pharmacokinetic study in mice, ex vivo APTT; parameters: species or system Female Balb/c mice; details: for Mean APTT: ex vivo, i.v. 5.25 μg/mouse
Experimental: The clearance of FXaI from the blood of female mice was monitored over a period of 30 minutes by assessing the ex vivo APTT (see FIG. 4) at the time points indicated. The amount of FXaI is expressed as μg FXaI [Macart and Gerbaut, Clin. Chim. Acta 122:93-101 (1982)], determined from a calibration curve consisting of in vitro APTT time versus inhibitor concentration as shown in FIG. 5B.
A preliminary pharmacokinetic experiment was performed in order to assess the clearance rate of FXaI from the circulatory system. Female Balb/c mice (20-25 gm body weight) were injected intravenously with purified FXaI (isoform A; 5.25 μg protein/mouse in 0.2 ml saline). Blood samples were drawn into 1/10 v/v 3.8% citrate at 1, 3, 10 and 30 min after injection. It was possible to obtain only one blood sample from each mouse and therefore each timepoint is from a different mouse. The plasma was then separated and assayed for APTT. The concentration of FXaI was calculated from a calibration curve of APTT versus FXaI concentration which was constructed in vitro by adding various amounts of FXaI to a plasma pool from untreated mice FIG. 5B.

FXa = test: chromogenic FXa inhibitory activity assay (hydrolysis of CHG); type: biochemical, bovine
Experimental: Increasing amounts of FXaI purified on Mono-Q were preincubated for 3 minutes with 2 pmol bovine FXa in a 1 ml cuvette. The initial rate of hydrolysis of the substrate CHG was monitored at 405 nm (see Example 2). Fraction 47 was the peak fraction of a particular purification experiment.
The assay of FXa inhibitory activity is based on the inhibition of the FXa-mediated hydrolysis of the chromogenic substrate methoxycarbonyl-D-cyclohexylglycyl-glycyl-arginyl p-nitroanilide (CHG) as described below.
The appropriate substrate concentration was determined from the molar absorbance which is 8210 at 342 nm. The reaction mixture contains 50 mM Tris-HCl pH 8.2, 5 mM CaCl2, 200 mM NaCl, 0.1% PEG, 40 μM substrate, and approximately 2 nM FXa. The FXa concentration is determined more precisely from the initial (first 20 seconds) rate of CHG hydrolysis at 40 μM in the absence of inhibitor based on the kinetic parameters mentioned above.
Inhibition of the increase in absorbance may be observed in the presence of the FXa inhibitory activity of an FXa inhibitor such as FXaI of the present invention. The inhibitor concentration is the difference in absorbance between the reaction in the presence and absence of inhibitor multiplied by the FXa concentration.
This determination assumes the formation of a 1:1 enzyme-inhibitor complex, and further assumes that the dissociation constant is low enough (i.e., tight binding) to enable essentially total binding of the inhibitor (FXaI) to the enzyme (FXa). In fact, the saturation shape of the dose-response curve (FIG. 3) provides evidence that a finite and not negligible dissociation of the inhibitor-enzyme complex occurs under these conditions. The dose response curve is represented by the degree of inhibition versus FXaI concentration and is further described in Section 5.2.
The degree of dissociation of the FXa-FXaI complex is characterized by the inhibition constant (Ki) and may be determined from the inhibited velocity of the hydrolysis of the chromogenic substrate CHG. […] The Ki of naturally occurring FXa in the chromogenic assay is about 9 nM.
The determination of inhibitor concentration determined by the above method is therefore probably underestimated. It was found useful to define the FXaI concentration as the protein concentration (IC50) required to obtain a constant degree of inhibition, usually 50% and to define the amount causing 50% inhibition under these reaction conditions to be 1 milliunit (mu) or 1 pmol. IC50 is generally higher than Ki, and depending on the type of inhibition, can be shown to depend variously on substrate concentration, Ki, Km and other factors (Segel, I. (1974) "Enzyme Kinetics", Wiley Interscience). In fact, the range of values of IC50 was determined to be about 10-20 nM.
The FXaI activity assay used to determine concentration during purification and characterization was performed in an Elisa Titertek Twin Reader, Type 380 (EF LAB). The final activity measurement of purified protein was also performed in a Phillips (model PU 8720) UV/Vis scanning spectrophotometer.

[4] = molecular target: FXa in a prothrombinase complex; test: FXa inhibitory activity in the prothrombinase complex (thrombin generation); type: biochemical
Experimental: The inhibitory activity of FXaI may also be assayed by its effect on FXa in a prothrombinase complex. The phospholipid used was rabbit brain cephalin (Sigma). The contents of one vial, suspended in 1 ml 0.15M NaCl were diluted 1:40 in the reaction mixture, i.e. 2.5 μl/100 μl. The concentrations of the other components were: FXa 250 pM, prothrombin 2.67 μM, FVa 4.2 nM and Ca^++ 1 mM in 20 mM Tris-HCl pH 7.4/150 mM NaCl/0.1% polyethylene glycol 6000. Following 10 minutes of preincubation at 37° C., the reaction was initiated by the addition of prothrombin. Aliquots were removed at various time intervals. The reaction was stopped by 10 mM EDTA and aliquots were kept on ice until assayed. The inhibition of FXa by a FXa inhibitor (e.g. FXaI of the present invention) was observed as the effect of FXaI on the generation of thrombin from prothrombin at 37° C. The amount of thrombin generated was assayed using 80 μg of the synthetic thrombin p-nitroanilide substrate S-2238 (KabiVitrum, Sweden) at 23° C.

plasma = test: APTT doubling by recombinant mature FXaI; type: biochemical
Experimental: The inhibitory activity of FXaI was also assayed as the increase of the activated partial thromboplastin time (APTT) essentially as described in Spaethe, Haemostasis, AHS/Deutschland GmbH, Munich (1984), using as reagent Actin FS (Dade), which contains ellagic acid for activation of Factors XII and Factor XI, and soy bean phospholipid. Under these conditions, and in the presence of 20 mM CaCl2, only the intrinsic pathway of coagulation is activated.

Row | Molecule | inhibition of thrombin (thrombin [1]) | Inhibitory activity (specific activity), Thrombin (thrombin [2]) [mu/mg] | inhibition of plasmin (Plasmin) | FXaI calculated from the calibration curve ([3]; 1 min post-injection) [µg] | FXaI calculated from the calibration curve ([3]; 3 min post-injection) | FXaI calculated from the calibration curve ([3]; 10 min post-injection) [µg] | FXaI calculated from the calibration curve ([3]; 30 min post-injection) [µg] | Mean APTT ([3]; 1 min post-injection) [s] | Mean APTT ([3]; 3 min post-injection) | Mean APTT ([3]; 10 min post-injection) [s] | Mean APTT ([3]; 30 min post-injection) | half life of plasma inhibitor activity ([3]; mice, intravenous, 5.25 μg protein/mouse) | Inhibitory activity (specific activity), FXa (FXa; 1 mu = amount causing 50% inhibition with 2 nM FXa) [mu/mg] | IC50 (FXa; chromogenic assay, read-out: IC50 (protein concentration for 50% inhibition)) [nM] | Ki ([4]; 50 pM FXa, 1.35 μM prothrombin, read-out: Ki in prothrombinase complex assay, modified protocol) [nM] | IC50 ([4]; 250 pM FXa, 2.67 μM prothrombin) [nM] | Ki ([4]; 250 pM FXa, 2.67 μM prothrombin, read-out: Ki in prothrombinase complex assay) [nM] | FXa inhibitory specific activity (FXa; after removal of the extension peptide from the cleavage solution by chromatography) [mu/mg protein] | FXa inhibitory specific activity (FXa; following cleavage with enterokinase) | concentration causing doubling of the APTT (plasma) [µg/mL]
1 | naturally occurring FXaI: FXa inhibitor protein isolated from dilute leech saliva (DLS) of the leech Hirudo medicinalis; 14 kD monomer | not inhibited | < 1 | not inhibited | 0.3150 | 0.243 µg and 0.174 µg | 0.1245 | 0 | 91 | 79 s and 66 s | 55 | 29 s and 30 s | about 7.5 min | 507 | 10 to 20 | 0.12 | 0.19 | 0.072 |  |  | 
2 | B1 |  |  |  |  |  |  |  |  |  |  |  |  |  |  |  |  |  | ≤ 8000 | 4000-4500 mu/mg protein | 12.2
